For orientation: IC50 means the midpoint of a concentration-inhibition curve. Low values mean inhibition by little substance, high ones a need for much substance.

In data set [1] the target is T1, Retinoic acid receptor RXR-alpha (Homo sapiens) (UniProt P19793).
T1 sequence (whole entry): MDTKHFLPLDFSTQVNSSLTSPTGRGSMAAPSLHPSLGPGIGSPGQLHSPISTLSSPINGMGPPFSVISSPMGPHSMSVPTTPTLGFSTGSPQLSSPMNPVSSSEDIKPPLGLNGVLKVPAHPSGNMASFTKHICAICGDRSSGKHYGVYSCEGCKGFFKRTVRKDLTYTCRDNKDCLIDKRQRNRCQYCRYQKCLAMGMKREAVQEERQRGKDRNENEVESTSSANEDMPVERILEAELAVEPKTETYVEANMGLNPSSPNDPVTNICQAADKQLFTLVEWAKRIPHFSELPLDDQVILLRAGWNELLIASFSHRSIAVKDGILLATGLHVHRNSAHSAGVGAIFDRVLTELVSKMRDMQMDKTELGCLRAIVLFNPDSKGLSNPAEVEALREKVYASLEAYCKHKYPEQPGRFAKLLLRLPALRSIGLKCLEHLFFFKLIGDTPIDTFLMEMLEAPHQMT
The data set can be described thus: Transactivation of RXRalpha (unknown origin) relative to control.

Data set [2] in a line: Cytotoxicity against mouse embryo fibroblasts. Format: cell-based. The note with it: fibroblast.
The target of data set [3] is T2, Peroxisome proliferator-activated receptor delta (Homo sapiens) (UniProt Q03181).
T2 sequence (whole entry): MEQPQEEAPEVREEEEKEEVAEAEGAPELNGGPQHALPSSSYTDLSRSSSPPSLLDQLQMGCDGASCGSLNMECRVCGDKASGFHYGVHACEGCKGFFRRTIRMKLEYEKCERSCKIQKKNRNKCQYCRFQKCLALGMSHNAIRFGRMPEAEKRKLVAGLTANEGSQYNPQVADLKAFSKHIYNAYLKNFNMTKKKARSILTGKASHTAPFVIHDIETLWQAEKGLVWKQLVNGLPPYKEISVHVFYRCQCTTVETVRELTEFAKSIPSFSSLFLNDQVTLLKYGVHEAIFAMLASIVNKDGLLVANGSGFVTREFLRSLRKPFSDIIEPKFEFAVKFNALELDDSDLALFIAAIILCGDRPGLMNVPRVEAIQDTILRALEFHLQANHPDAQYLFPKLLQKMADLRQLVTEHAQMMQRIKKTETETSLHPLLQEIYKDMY
The data set is described as follows: Transactivation of PPARdelta (unknown origin) relative to control.

The target in data set [4] is T3, Peroxisome proliferator-activated receptor alpha (Homo sapiens) (UniProt Q07869).
T3 sequence (whole entry): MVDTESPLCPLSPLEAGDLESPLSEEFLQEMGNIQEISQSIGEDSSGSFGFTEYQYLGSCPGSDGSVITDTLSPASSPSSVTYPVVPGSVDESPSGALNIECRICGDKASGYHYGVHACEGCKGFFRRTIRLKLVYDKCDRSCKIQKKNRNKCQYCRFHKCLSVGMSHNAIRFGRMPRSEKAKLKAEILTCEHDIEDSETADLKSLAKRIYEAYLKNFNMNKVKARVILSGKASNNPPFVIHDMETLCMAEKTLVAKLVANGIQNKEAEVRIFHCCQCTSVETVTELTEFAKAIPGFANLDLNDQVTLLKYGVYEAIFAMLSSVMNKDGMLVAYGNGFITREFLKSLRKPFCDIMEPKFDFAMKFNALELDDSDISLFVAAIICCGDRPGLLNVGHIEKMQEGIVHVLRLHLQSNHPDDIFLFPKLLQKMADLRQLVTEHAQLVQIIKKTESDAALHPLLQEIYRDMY
The data set can be described thus: Transactivation of PPARalpha (unknown origin) relative to control.

Data set [5] has as its target T4, Peroxisome proliferator-activated receptor gamma (Homo sapiens, UniProt P37231).
T4 sequence (P37231 whole entry): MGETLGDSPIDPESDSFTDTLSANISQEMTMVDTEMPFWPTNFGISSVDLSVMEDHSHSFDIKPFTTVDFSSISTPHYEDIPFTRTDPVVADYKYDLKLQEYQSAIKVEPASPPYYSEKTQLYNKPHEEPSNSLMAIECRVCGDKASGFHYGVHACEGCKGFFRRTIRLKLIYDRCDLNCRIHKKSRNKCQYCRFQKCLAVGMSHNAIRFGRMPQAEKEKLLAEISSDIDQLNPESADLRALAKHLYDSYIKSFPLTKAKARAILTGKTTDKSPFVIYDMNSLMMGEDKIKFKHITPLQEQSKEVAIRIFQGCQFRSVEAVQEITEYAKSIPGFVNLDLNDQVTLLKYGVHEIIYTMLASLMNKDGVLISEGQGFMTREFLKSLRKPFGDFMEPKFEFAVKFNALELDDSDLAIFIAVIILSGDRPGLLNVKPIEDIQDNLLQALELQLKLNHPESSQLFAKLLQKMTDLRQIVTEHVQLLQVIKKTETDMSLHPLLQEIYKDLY
The data set is described as follows: Binding affinity to GST-tagged human PPARgamma LBD by ligand displacement assay.

Data set [6] deals with Free fatty acid receptor 1 (Homo sapiens) (UniProt O14842). The data set can be described thus: Antagonist activity at FFAR1 (unknown origin) assessed as inhibition of GW9508-induced calcium mobilization at 10 uM preincubated for 20 mins followed by GW9508 induction by fluorescence assay. Type of data set: functional.
In data set [7] the target is T5, Peroxisome proliferator-activated receptor gamma (Homo sapiens) (UniProt P37231).
T5 sequence (whole entry): T4 sequence (P37231 whole entry)
The data set is described as follows: Transactivation of human PPARgamma LBD transfected in mouse embryo fibroblasts at 100 uM after 18 hrs by Gal4-responsive luciferase reporter gene assay relative to vehicle-treated control. In general terms: In a reporter assay the amount or activity of a reporter protein is the signal.

Data set [8] deals with Free fatty acid receptor 1 (Homo sapiens) (UniProt O14842). The data set can be described thus: Agonist activity at FFAR1 (unknown origin) assessed as induction of calcium mobilization at 10 uM by fluorescence assay. Type of data set: functional.
In data set [9] the target is T5, Peroxisome proliferator-activated receptor gamma (Homo sapiens). The data set is described as follows: Transactivation of human PPARgamma LBD transfected in mouse embryo fibroblasts at 100 uM after 18 hrs by Gal4-responsive luciferase reporter gene assay relative to rosiglitazone.

The source made the active and inactive calls. The rule behind the calls is not given here.

Free fatty acid receptor 1 (Homo sapiens), sequence (O14842 whole entry, the tested form may be a part): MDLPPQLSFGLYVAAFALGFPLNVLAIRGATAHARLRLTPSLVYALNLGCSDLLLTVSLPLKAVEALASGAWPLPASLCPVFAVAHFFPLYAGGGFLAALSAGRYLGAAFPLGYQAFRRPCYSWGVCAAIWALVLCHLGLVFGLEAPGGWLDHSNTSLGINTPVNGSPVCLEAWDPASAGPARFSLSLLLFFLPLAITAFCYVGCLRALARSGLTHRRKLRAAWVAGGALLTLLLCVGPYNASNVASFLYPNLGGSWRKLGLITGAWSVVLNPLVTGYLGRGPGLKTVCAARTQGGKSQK

As for `CC(C)N(Cc1ccc(CCC(=O)O)cc1)C(=O)c1cccc(CNC(=O)c2ccccc2)c1`, the fold change (FC) is 5 in data set [1], less than 2 in data set [3], less than 2 in data set [4] and 13.4 in data set [7]. The values for the Activity result in [2] and in [9] were “Non-toxic” and 27.2%, respectively. This compound also showed an IC50 in data set [5] of 38.7 µM. The inhibition entry in data set [6] is “inactive”. Moreover, in [8], the outcome was inactive.

In the case of `CCN(Cc1ccc(C(=O)N(CC)Cc2ccc(CCC(=O)O)cc2)cc1)C(=O)c1ccccc1`, the Activity result in data set [2] was “Non-toxic”; in data set [9], 13.8%. Besides, in [6], the inhibition entry is “inactive”. In addition, the fold change (FC) in data set [7] was 7.3. Also, the result in data set [8] was inactive.

As to `CCN(Cc1cccc(C(=O)N(Cc2ccc(CCC(=O)O)cc2)C(C)C)c1)C(=O)c1ccccc1`, the results for the Activity entry in [2] and in [9] were “Non-toxic” and 11.8%, respectively. Besides, the inhibition entry in [6] is “inactive”. Besides, the fold change (FC) in data set [7] amounted to 5.8. The outcome in data set [8] was inactive.

As for `CCN(Cc1ccc(C(=O)NCc2ccc(CCC(=O)O)cc2)cc1)C(=O)c1ccccc1`, the results for the Activity entry in [2] and in data set [9] were “Non-toxic” and 13.1%, respectively. Further, the inhibition entry in data set [6] is “inactive”. This compound also yielded a fold change (FC) in [7] of 6. The outcome in data set [8] was inactive.

Consider `CCN(Cc1ccc(CCC(=O)O)cc1)C(=O)c1ccc(CN(C(=O)c2ccccc2)C(C)C)cc1`, for which the Activity result in data set [2] is “Non-toxic”; in data set [9], 6.9%. The inhibition entry in data set [6] was “inactive”. Also, in data set [7], the fold change (FC) turned out to be 3.6. Further, the outcome in data set [8] was inactive.

On to `CC(C)N(Cc1ccc(C(=O)N(Cc2ccc(CCC(=O)O)cc2)C(C)C)cc1)C(=O)c1ccccc1`, for which the Activity entry in [2] is “Non-toxic”; in [9] it was 24.7%. Moreover, the inhibition entry in [6] is “inactive”. Also, the fold change (FC) in data set [7] worked out at 14.7. For the same compound, in [8], the result was inactive.

With `CC(C)N(Cc1ccc(CCC(=O)O)cc1)C(=O)c1ccc(CNC(=O)c2ccccc2)cc1`, the values for the Activity entry in [2] and in data set [9] were “Non-toxic” and 21.2%, respectively. For the same compound, the inhibition entry in [6] was “inactive”. In data set [7], this compound registered a fold change (FC) of 12.6. Moreover, the outcome in [8] was inactive.

`CCN(Cc1cccc(C(=O)N(CC)Cc2ccc(CCC(=O)O)cc2)c1)C(=O)c1ccccc1`: the fold change (FC) in data set [1] was less than 2; in [3] it was less than 2; in data set [4], greater than 2; in data set [7] it was 11.2. The figures for the Activity result in [2] and in data set [9] were “Non-toxic” and 20.9%, respectively. In [5], this compound returned a concentration for half-maximal inhibition (IC50) of 56.2 µM. Besides, the inhibition entry in [6] was “inactive”. The result in [8] was inactive.

In the case of `CCN(Cc1ccc(CCC(=O)O)cc1)C(=O)c1cccc(CN(C(=O)c2ccccc2)C(C)C)c1`, the Activity entry was “Non-toxic” in data set [2] and 11.6% in [9]. Moreover, the inhibition result in [6] was “inactive”. In data set [7], this compound returned a fold change (FC) of 6.2. In [8], the result was inactive.

Regarding `CC(C)N(Cc1ccc(C(=O)NCc2ccc(CCC(=O)O)cc2)cc1)C(=O)c1ccccc1`, the results for the Activity result in [2] and in data set [9] were “Non-toxic” and 12.5%, respectively. For the same compound, the inhibition result in data set [6] is “inactive”. The fold change (FC) in data set [7] was determined as 5.7. Also, in data set [8], the outcome was inactive.

Consider `CC(C)N(Cc1cccc(C(=O)NCc2ccc(CCC(=O)O)cc2)c1)C(=O)c1ccccc1`, for which the Activity entry was “Non-toxic” in [2] and 18.4% in [9]. Besides, the inhibition entry in data set [6] is “inactive”. The fold change (FC) in data set [7] amounted to 7.3. Also, the outcome in data set [8] was inactive.

For `CCN(Cc1ccc(C(=O)N(Cc2ccc(CCC(=O)O)cc2)C(C)C)cc1)C(=O)c1ccccc1`, the results for the Activity result in data set [2] and in data set [9] were “Non-toxic” and 11.6%, respectively. In data set [6], the inhibition entry is “inactive”. The compound further came in with a fold change (FC) in data set [7] of 6.9. The result in data set [8] was inactive.

On to `O=C(O)CCc1ccc(CNC(=O)c2cccc(CNC(=O)c3ccccc3)c2)cc1`, for which the fold change (FC) in data set [1] is less than 2; in data set [3] it was less than 2; in data set [4], less than 2; in data set [7], 5.6. The figures for the Activity result in data set [2] and in [9] were “Non-toxic” and 14.1%, respectively. The compound also had an IC50 in data set [5] of 62.7 µM. In addition, the inhibition result in [6] was “inactive”. Moreover, the outcome in data set [8] was inactive.

As for `O=C(O)CCc1ccc(CNC(=O)c2ccc(CNC(=O)c3ccccc3)cc2)cc1`, the results for the Activity entry in data set [2] and in [9] were “Non-toxic” and 5.4%, respectively. Besides, in data set [6], the inhibition entry was “inactive”. In data set [7], this compound displayed a fold change (FC) of 2.5. The result in [8] was inactive.

On to `CCN(Cc1cccc(C(=O)NCc2ccc(CCC(=O)O)cc2)c1)C(=O)c1ccccc1`, for which the Activity entry is “Non-toxic” in data set [2] and 23.5% in [9]. In addition, the inhibition result in data set [6] is “inactive”. Besides, in data set [7], the fold change (FC) came to 9.3. Also, the result in data set [8] was inactive.

Regarding `CCN(Cc1ccc(CCC(=O)O)cc1)C(=O)c1ccc(CNC(=O)c2ccccc2)cc1`, the Activity entry in data set [2] was “Non-toxic”; in data set [9], 11.8%. The inhibition entry in data set [6] was “inactive”. In data set [7], the fold change (FC) amounted to 6.2. For the same compound, in data set [8], the result was inactive.

As to `CCN(Cc1ccc(CCC(=O)O)cc1)C(=O)c1cccc(CNC(=O)c2ccccc2)c1`, the Activity result in [2] is “Non-toxic”; in data set [9] it was 15.1%. In data set [6], the inhibition result was “inactive”. The compound also came in with a fold change (FC) in [7] of 8.1. Besides, the result in data set [8] was inactive.

As to `CC(C)N(Cc1cccc(C(=O)N(Cc2ccc(CCC(=O)O)cc2)C(C)C)c1)C(=O)c1ccccc1`, the Activity result is “Non-toxic” in data set [2] and 10.7% in [9]. In addition, the inhibition result in [6] was “inactive”. This compound also had a fold change (FC) in data set [7] of 5.3. The outcome in data set [8] was inactive.

The record behind these values is ChEMBL document CHEMBL2401657, “Discovery of new PPARγ agonists based on arylopeptoids” (Bioorg Med Chem Lett, 2013).
